Experimental data taken from patent US20240191177A1, “GROWTH PROMOTER FOR LACTIC ACID COCCI” (KIRIN HOLDINGS KABUSHIKI KAISHA, priority 2002, published 2024).

Key:
Assay type in all cases: cell-based
[1] = tested on: Lactococcus lactis subsp. lactis JCM5805 strain; assay: Growth promoting effect, MRS medium, anaerobic cultivation (OD600)
Protocol: A Lactococcus lactis subsp. lactis JCM5805 strain was used as the lactic acid coccus.
The bacteria were counted by measuring the OD600 (turbidity) of the medium using an absorbance meter (Biochrom GeneQuant 1300).
Measured values were expressed as mean±standard error. One-way analysis of variance was followed by Tukey's test, and cases where p<0.05 relative to the control group were evaluated as having a significant difference.

[2] = tested on: Lactococcus lactis subsp. lactis JCM5805 strain; assay: Growth promoting effect, GM17 medium, anaerobic cultivation (OD600); settings: 0.5 to 2% by mass, 30° C. 24 hours, FIG. 3
From the text: (§1) The lactic acid coccus described in Example 1, item (1), A was used.
The medium used was a medium obtained by adding 20 g/L of glucose to M17 medium (Difco M17 Broth, BD; the composition thereof is indicated in Table 2; the same applies hereinafter in the present specification) (sometimes referred to as “GM17 medium” herein). […] Next, the bacterial cells were inoculated (seeded) in a 15-ml conical tube (FALCON) so that the concentration of the bacterial cells was 0.1% (v/v) with respect to 10 ml of the prepared medium, and cultivated at 30° ° C. for 24 hours in an incubator (TOKYO […] CO., LTD.) (static cultivation).
(§2) Measurement was performed in a similar manner as described in Example 1, item (1), C.
(§3) Analysis was performed in a similar manner as described in Example 1, item (1), D.

[3] = tested on: Lactococcus lactis subsp. lactis JCM5805 strain; assay: Growth promoting effect, MRS medium, aerobic cultivation (OD600); settings: 0.5 to 2.0% by mass, 30° C. 24 hours, FIG. 2
Protocol: A Lactococcus lactis subsp. lactis JCM5805 strain was used as the lactic acid coccus. The medium used was MRS medium. […] Next, the bacterial cells were inoculated (seeded) so that the concentration of the bacterial cells was 0.1% (v/v) with respect to 10 ml of the medium, and the medium inoculated with the bacterial cells was placed in an automatic cultivation searching device OT-201 (Oriental Instruments: sometimes referred to as “bioplotter” herein), and cultivated at 30° ° C. for 24 hours (stirring intensity condition: Medium). The bacteria were counted by measuring the OD600 (turbidity) of the medium using an absorbance meter (Biochrom GeneQuant 1300). Measured values were expressed as mean±standard error. One-way analysis of variance was followed by Tukey's test, and cases where p<0.05 relative to the control group were evaluated as having a significant difference.

[4] = tested on: Lactococcus lactis subsp. lactis JCM5805 strain; assay: Growth promoting effect, GM17 medium, aerobic cultivation (OD600); settings: 0.5 to 2% by mass, 30° C. 24 hours, FIG. 4
Protocol: as §1
The medium used was GM17 medium. […] Next, the bacterial cells were inoculated (seeded) so that the concentration of the bacterial cells was 0.1% (v/v) with respect to 10 ml of the prepared medium, and the medium inoculated with the bacterial cells was placed in an automatic cultivation searching device OT-201 (Oriental Instruments; sometimes referred to as “bioplotter” herein), and cultivated at 30° C. for 24 hours (stirring intensity condition: Medium).
as §2, §3

[5] = tested on: Pediococcus damnosus; assay: Growth promoting effect on lactic acid cocci of the genus Pediococcus, MRS medium, anaerobic (Example 6); settings: strain JCM5886, MRS medium, αKG 0.1 to 4 or 1 to 4% by mass, malic acid 0.1 to 2 or 1 to 2% by mass, FIG. 8
Protocol: (§4) The lactic acid cocci of the genus Pediococcus indicated in Table 5 were used as the bacterial cells.
(§5) Cultivation was performed in a similar manner as described in Example 1, item (1), B (i), except that α-ketoglutaric acid (concentrations shown in FIG. 8A (0.1 to 4% by mass) and FIG. 8C (1 to 4% by mass)) and malic acid (concentrations shown in FIG. 8B (0.1 to 2% by mass) and FIG. 8D (1 to 2% by mass)) were each added, as the dicarboxylic acids, to the medium (anaerobic cultivation).
as §2, §3

[6] = tested on: Pediococcus acidilactici; assay: as above; settings: strain JCM8797, MRS medium, αKG 0.1 to 4 or 1 to 4% by mass, malic acid 0.1 to 2 or 1 to 2% by mass, FIG. 8
Protocol: as §4, §5, §2, §3

[7] = 0.01 to 4.0% by mass, 30° C. 24 hours, FIG. 1A/1C

Row | SMILES | growth of the lactic acid coccus (OD600) as compared with the control ([1]; citric acid 0.25 to 1% by mass, FIG. 7) | growth of the lactic acid coccus (OD600) as compared with the control [2] | growth of the lactic acid coccus (OD600) as compared with the control [3] | growth of the lactic acid coccus (OD600) as compared with the control [4] | growth of the lactic acid cocci belonging to the genus Pediococcus (OD600) as compared with the control [5] | growth of the lactic acid cocci belonging to the genus Pediococcus (OD600) as compared with the control [6] | growth of the lactic acid coccus (OD600) as compared with the control [1, 7]
1 | O=C(O)CC(O)(CC(=O)O)C(=O)O [citric acid, reference compound] | significantly promoted |  |  |  |  |  | 
2 | O=C(O)CC(O)C(=O)O (stereo not shown) [malic acid] |  | significantly promoted | significantly promoted in a concentration-dependent manner | promoted in a concentration-dependent manner | significantly promoted in a concentration-dependent manner | significantly promoted in a concentration-dependent manner | significantly promoted in a concentration-dependent manner
3 | O=C(O)CCC(=O)C(=O)O [αKG, α-ketoglutaric acid] |  | significantly promoted | significantly promoted in a concentration-dependent manner | promoted in a concentration-dependent manner | significantly promoted in a concentration-dependent manner | significantly promoted in a concentration-dependent manner | significantly promoted in a concentration-dependent manner
